Drawing on patent publication US20220356174A1, “PYRIDIN-2-ONE COMPOUNDS USEFUL AS SMARCA2 ANTAGONISTS” (Epizyme, Inc., priority 2018, published 2022), this text covers IC50 for 29 compounds.

The target of the first test is T1, FL-SMARCA2 (full-length human SMARCA2 isoform 1) (Homo sapiens, UniProt P51531).
T1 construct: FLAG tag (YKDDDDK) (C); made in house; host or cells: Sf21 insect cells (baculovirus, pFastBacI)
T1 sequence (P51531 with tags, fused parts or gaps): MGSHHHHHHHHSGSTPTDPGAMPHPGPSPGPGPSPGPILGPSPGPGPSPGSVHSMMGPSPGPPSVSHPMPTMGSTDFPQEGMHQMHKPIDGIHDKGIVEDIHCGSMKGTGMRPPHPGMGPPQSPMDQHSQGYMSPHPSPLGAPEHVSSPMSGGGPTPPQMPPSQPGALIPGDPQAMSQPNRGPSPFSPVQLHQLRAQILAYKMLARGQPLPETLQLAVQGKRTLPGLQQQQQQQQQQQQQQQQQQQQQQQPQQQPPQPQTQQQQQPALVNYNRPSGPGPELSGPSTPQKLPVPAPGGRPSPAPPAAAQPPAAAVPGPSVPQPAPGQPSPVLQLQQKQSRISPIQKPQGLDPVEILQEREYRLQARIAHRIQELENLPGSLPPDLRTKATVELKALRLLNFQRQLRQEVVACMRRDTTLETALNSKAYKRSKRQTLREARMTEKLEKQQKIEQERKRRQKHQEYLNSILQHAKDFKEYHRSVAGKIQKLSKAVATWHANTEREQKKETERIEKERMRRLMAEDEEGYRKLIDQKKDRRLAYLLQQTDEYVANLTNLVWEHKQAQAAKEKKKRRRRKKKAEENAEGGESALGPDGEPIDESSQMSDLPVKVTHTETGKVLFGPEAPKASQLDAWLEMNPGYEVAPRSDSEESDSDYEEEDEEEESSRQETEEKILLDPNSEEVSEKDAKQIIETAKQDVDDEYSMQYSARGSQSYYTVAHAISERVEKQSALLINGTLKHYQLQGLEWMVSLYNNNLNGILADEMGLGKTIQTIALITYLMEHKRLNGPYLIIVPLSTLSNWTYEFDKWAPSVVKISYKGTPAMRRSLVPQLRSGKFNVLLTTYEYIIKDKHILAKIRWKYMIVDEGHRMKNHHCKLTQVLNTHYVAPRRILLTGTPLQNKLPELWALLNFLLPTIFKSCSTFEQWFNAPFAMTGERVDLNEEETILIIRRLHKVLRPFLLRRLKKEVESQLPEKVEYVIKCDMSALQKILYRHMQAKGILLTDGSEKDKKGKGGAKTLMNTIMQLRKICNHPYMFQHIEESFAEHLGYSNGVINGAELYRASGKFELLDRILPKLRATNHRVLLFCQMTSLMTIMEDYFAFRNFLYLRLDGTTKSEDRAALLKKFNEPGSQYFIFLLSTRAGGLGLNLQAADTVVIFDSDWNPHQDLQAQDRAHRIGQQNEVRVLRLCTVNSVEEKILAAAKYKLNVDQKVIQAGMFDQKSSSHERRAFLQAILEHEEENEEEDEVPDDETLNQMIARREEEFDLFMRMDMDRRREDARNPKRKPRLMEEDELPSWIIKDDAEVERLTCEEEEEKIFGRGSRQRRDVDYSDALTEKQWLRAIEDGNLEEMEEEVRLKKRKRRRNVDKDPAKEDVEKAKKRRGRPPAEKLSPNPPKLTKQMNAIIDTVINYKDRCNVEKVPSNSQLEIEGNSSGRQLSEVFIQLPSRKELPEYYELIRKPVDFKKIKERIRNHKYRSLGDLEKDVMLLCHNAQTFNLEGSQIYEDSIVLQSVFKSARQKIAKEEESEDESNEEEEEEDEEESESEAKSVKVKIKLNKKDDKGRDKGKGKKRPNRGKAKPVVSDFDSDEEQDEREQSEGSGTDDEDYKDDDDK
Description: SMARCA2 ATPase activity assay (ADP-Glo, chicken mononucleosome substrate). The test is classed as biochemical. Conditions: Table 3.1; ATPase assay, enzyme 5 nM, ATP 250 uM, chicken mononucleosome 10 nM, 30 min preincubation. For orientation: ADP-Glo turns the ADP formed in a reaction into a luminescent signal.
In turn, `CCn1cc(NC(=O)c2cc(Cl)c(C#N)s2)ccc1=O` [Compound 86] yielded an IC50 of 0.365 µM.

For `N#Cc1cc(NC(=O)c2cc(Cl)c(Cl)s2)cn(CCF)c1=O` [Compound 193], the IC50 is 1.23 µM.

Consider `CCn1cc(NC(=O)c2cc(Cl)c(Cl)s2)cc(Cc2cnn(C)c2)c1=O` [Compound 186], for which the IC50 came out at 15.6 µM.

`N#Cc1cc(C(=O)Nc2ccc(=O)n(CC(F)F)c2)sc1Cl` [Compound 320] displayed an IC50 of 0.151 µM.

`O=C(Nc1cc(F)c(=O)n(CCF)c1)c1cc(Cl)c(CO)s1` [Compound 284] registered an IC50 of 3.21 µM.

`CS(=O)(=O)c1cc(C(=O)Nc2cc(F)c(=O)n(CCF)c2)sc1Cl` [Compound 307]: the IC50 stood at 0.94 µM.

For the compound `O=C(Nc1cc(F)c(=O)n(CCF)c1)c1cc(Cl)c(C(O)C(F)(F)F)s1` (stereo not shown) [Compound 289], the IC50 was 10.6 µM.

`O=C(Nc1cc(F)c(=O)n(CC(F)(F)F)c1)c1cnc(Cl)o1` [Compound 273] showed an IC50 of over 50 µM.

The compound `CNc1c(C(=O)Nc2cc(F)c(=O)n(CC(F)F)c2)sc(Cl)c1Cl` [Compound 335] gave an IC50 of 7.46 µM.

`CCn1cc(NC(=O)c2cc(Cl)n[nH]2)cc(F)c1=O` [Compound 165] displayed an IC50 of 0.343 µM.

In turn, `CCn1cc(NC(=O)c2cnc(NC(C)C)s2)ccc1=O` [Compound 217] yielded an IC50 of over 50 µM.

`O=C(Nc1ccc(=O)n(CC(F)F)c1)c1cc(Cl)c(Cl)s1` [Compound 81]: the IC50 amounted to 0.223 µM.

Take `CCn1cc(NC(=O)c2cc(Cl)c(Cl)s2)cc(OC)c1=O` [Compound 110]: the IC50 is over 50 µM.

The compound `O=C(Nc1ccc(=O)n(Cc2ccccc2)c1)c1ccc(Br)s1` [Compound 54] displayed an IC50 of over 50 µM.

`Cc1nc(-c2cc(C(=O)Nc3ccc(=O)n(C)c3)n(C)c2)cs1` [Compound 7] showed an IC50 of over 50 µM.

In turn, `CCn1cc(NC(=O)c2ccc(I)n2C)ccc1=O` [Compound 48] gave an IC50 of 14.1 µM.

Take `N#Cc1cc(NC(=O)c2cc(Cl)c(Cl)[nH]2)cn(CC(F)(F)F)c1=O` [Compound 211]: the IC50 stood at 2.31 µM.

`CCn1cc(NC(=O)c2cnc(-c3ccc4c(c3)CCO4)s2)ccc1=O` [Compound 5]: the IC50 was over 50 µM.

Compound `CCn1cc(NC(=O)c2cccn2C)ccc1=O` [Compound 13] displayed an IC50 of over 50 µM.

On to `Cn1cc(NC(=O)c2cnc(-c3ccco3)s2)cc(Cl)c1=O` [Compound 12], for which the IC50 was over 50 µM.

`Cn1nc(C(=O)Nc2cc(F)c(=O)n(CCF)c2)cc1Cl` [Compound 230] returned an IC50 of over 50 µM.

In turn, `CCn1cc(NC(=O)c2cc(C)sc2C)ccc1=O` [Compound 33] yielded an IC50 of over 50 µM.

Compound `Cc1cc(C(=O)Nc2cc(F)c(=O)n(CCF)c2)on1` [Compound 250] returned an IC50 of 25.4 µM.

Still in this test, the particulars now being: Table 3d.1; ATPase assay, enzyme 5 nM, ATP 250 uM, chicken mononucleosome 10 nM, 30 min preincubation; read-out: FL-SMARCA2 IC>50.
In the case of `Cn1cc(NC(=O)C(C)(C)Oc2ccc(C#N)cc2)cc(Cl)c1=O` [Compound 3d], the IC50 was over 50 µM.

Consider `CCn1cc(NC(=O)c2cc(Cl)c(Cl)s2)c(F)cc1=O` [Compound 31d], for which the IC50 came out at 48.1 µM.

For the compound `COc1cccc(-c2nc(C(=O)Nc3cn(C)c(=O)cc3C)cs2)c1OC` [Compound 5d], the IC50 is over 50 µM.

Turning to `O=C(Nc1cc(F)c(=O)n(CC(F)F)c1)c1nc(Cl)c[nH]1` [Compound 51d], the IC50 is over 50 µM.

In the case of `O=C(Nc1cc(F)c(=O)n(CC(F)F)c1)c1cc(Cl)c(C#Cc2cccnc2)s1` [Compound 53d], the IC50 is over 50 µM.

In the case of `CSc1cc(NC(=O)c2cc(F)c(Cl)s2)cn(CC(F)F)c1=O` [Compound 50d], the IC50 stood at 34.6 µM.

The target of another test is FL-SMARCA4 (Homo sapiens, UniProt P51532). As to the kind of experiment: SMARCA4 ATPase activity assay (ADP-Glo, chicken mononucleosome substrate). Conditions: FL-SMARCA4 IC50.
Chain of FL-SMARCA4 (P51532 whole entry): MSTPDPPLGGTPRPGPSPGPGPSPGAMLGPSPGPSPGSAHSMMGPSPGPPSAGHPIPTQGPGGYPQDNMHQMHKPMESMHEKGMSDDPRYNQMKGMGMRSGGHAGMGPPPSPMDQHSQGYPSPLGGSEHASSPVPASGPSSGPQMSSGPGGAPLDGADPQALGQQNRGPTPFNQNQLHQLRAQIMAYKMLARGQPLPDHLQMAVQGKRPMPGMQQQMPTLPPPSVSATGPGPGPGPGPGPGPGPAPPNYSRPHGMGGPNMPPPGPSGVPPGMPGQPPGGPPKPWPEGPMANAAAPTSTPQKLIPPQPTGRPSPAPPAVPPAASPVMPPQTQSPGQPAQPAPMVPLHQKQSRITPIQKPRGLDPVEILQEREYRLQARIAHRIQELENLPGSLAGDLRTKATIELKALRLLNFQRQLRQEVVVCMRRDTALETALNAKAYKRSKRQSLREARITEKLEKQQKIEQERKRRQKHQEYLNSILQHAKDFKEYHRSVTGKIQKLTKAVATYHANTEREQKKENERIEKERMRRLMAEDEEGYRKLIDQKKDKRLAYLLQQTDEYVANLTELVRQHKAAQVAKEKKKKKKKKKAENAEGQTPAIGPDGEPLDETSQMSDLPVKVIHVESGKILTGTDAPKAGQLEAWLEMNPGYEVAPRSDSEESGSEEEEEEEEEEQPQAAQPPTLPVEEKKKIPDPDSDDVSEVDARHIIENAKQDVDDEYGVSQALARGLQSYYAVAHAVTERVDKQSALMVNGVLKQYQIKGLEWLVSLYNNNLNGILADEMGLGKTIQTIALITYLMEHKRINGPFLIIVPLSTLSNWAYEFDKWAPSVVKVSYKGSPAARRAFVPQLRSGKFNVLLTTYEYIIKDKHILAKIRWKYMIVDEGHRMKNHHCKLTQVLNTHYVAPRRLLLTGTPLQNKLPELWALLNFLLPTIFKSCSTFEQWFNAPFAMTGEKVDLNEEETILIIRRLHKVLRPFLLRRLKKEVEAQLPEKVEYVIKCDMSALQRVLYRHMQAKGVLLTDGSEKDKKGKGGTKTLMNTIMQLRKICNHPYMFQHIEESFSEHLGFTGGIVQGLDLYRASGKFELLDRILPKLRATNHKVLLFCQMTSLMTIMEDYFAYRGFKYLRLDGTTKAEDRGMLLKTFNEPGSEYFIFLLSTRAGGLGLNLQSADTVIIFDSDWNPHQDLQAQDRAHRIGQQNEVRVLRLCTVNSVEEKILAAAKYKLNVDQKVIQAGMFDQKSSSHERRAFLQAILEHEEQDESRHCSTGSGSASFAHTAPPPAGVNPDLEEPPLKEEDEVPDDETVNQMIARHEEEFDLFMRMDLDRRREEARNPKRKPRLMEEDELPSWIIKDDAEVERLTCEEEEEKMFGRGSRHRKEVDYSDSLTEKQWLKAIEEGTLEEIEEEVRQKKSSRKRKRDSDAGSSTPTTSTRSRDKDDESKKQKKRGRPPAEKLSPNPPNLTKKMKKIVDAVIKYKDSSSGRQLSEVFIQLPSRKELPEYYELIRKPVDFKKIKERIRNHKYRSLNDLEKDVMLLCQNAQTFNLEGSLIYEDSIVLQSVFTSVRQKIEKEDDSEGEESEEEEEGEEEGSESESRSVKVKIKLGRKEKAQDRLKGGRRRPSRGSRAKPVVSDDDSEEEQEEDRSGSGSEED
Description: Substrates. Chicken erythrocyte mononucleosomes were prepared from fresh chicken blood collected into anticoagulant and filtered through cheesecloth. The filtered chicken blood was diluted in buffer A (10 mM Tris-HCl, pH 7.4, 10 mM NaCl, 3 mM MgCl2) and centrifuged at 500 g for 15 minutes to collect the erythrocytes. Erythrocyte nuclei were harvested by resuspending the pellets in buffer A containing 0.3% NP-40 detergent. The mixture was stirred with a magnetic bar for 10 mins and centrifuged at 4000 g for 10 minutes. Resuspension, stirring and centrifugation was repeated twice more before the final nuclei pellet was resuspended in buffer A+0.3% NP-40 and stored at −80° C. until purification. For nucleosome purification, nuclei aliquots were rapidly thawed and washed five times with buffer B (10 mM Tris-HCl, pH 7.4, 1 mM CaCl2), 1 mM PMSF) and collected by centrifugation at 2800 g for 10 minutes. Pellets were resuspended in buffer B and treated with 100 U/mL micrococcal nuclease for 40 minutes at 37° C. The reaction was terminated by the addition of 2 mM EDTA and was centrifuged at 2800 g for 10 minutes. The nuclei were then lysed by resuspending the pellet in 1 mM EDTA and 1 mM PMSF and passing the mixture through a 22G needle 4 to 5 times. The solution was then centrifuged at 15,000 g for 20 minutes and the supernatant was collected. The remaining pellet was lysed through the syringe twice more and the supernatants were pooled after centrifugation. The pooled supernatants were further purified by size exclusion chromatography (GE Sephacryl S300 HR 50/100) in buffer C (10 mM HEPES, pH 7.5, 10 mM KCl, 1 mM EDTA, 1 mM PMSF, 10% glycerol). Fractions were analyzed by agarose gel electrophoresis and SDS-PAGE and fractions containing mononucleosomes were pooled and stored at −80° C.
The SMARCA2 or SMARCA4 ATPase assays were identical. The SMARCA2 or SMARCA4 ATPase assays were performed in a buffer consisting of 20 mM Bicine (pH 7.5), 10 mM KCl, 1 mM MgCl2, 1 mM TCEP, 0.005% BSG, and 0.002% Tween 20, prepared on the day of use. Compounds in 100% DMSO were 3-fold serially diluted to produce a 10 point curve for IC50 determination and 0.2 uL were transferred into polypropylene 384-well V-bottom plates (Greiner) using an Echo liquid handler (Labcyte). DMSO (0.2 uL) was added to Columns 11, 12, 23, 24, rows A-H for the maximum signal control and 0.2 uL doxorubicin, a known DNA intercalator, was added to columns 11, 12, 23, 24, rows I-P for the minimum signal control. The SMARCA2 or SMARCA4 enzyme (10 uL) was added to the compounds and allowed to incubate with the compounds for 30 min at room temperature. The SMARCA2 or SMARCA4 ATPase assay was initiated by the addition of 10 uL chicken mononucleosome and ATP mixture (final volume=20 uL). The final concentrations of the assay components were as follows: SMARCA2 or SMARCA4 was 5 nM, ATP was 250 uM, chicken mononucleosome was 10 nM, doxorubicin in the minimum signal control wells was 50 uM, and the DMSO concentration was 1%. 5 uL of the reaction mixture was transferred from the 384-well polypropylene plate to a white opaque polystyrene 384-well plate. At 60 minutes, the assays were terminated by the addition of 5 uL ADP-Glo™ Reagent (Promega). After 40 minutes, the luciferase reaction was initiated by the addition of 10 uL of Kinase Detection Reagent (Promega) and incubated for 1 hour. The ADP product generated from the SMARCA2 or SMARCA4 ATPase reaction was determined via luminescence intensity.
`Cn1cc(NC(=O)C(C)(C)Oc2ccc(C#N)cc2)cc(Cl)c1=O` [Compound 3d]: the IC50 was over 50 µM.

Regarding `CCn1cc(NC(=O)c2cc(Cl)c(Cl)s2)c(F)cc1=O` [Compound 31d], the IC50 is over 50 µM.

Compound `COc1cccc(-c2nc(C(=O)Nc3cn(C)c(=O)cc3C)cs2)c1OC` [Compound 5d] had an IC50 of over 50 µM.

`O=C(Nc1cc(F)c(=O)n(CC(F)F)c1)c1nc(Cl)c[nH]1` [Compound 51d] showed an IC50 of over 50 µM.

`O=C(Nc1cc(F)c(=O)n(CC(F)F)c1)c1cc(Cl)c(C#Cc2cccnc2)s1` [Compound 53d]: the IC50 is over 50 µM.

`CSc1cc(NC(=O)c2cc(F)c(Cl)s2)cn(CC(F)F)c1=O` [Compound 50d] gave an IC50 of over 50 µM.

Still in this test, the particulars now being: FL-SMARCA4 IC50, Table 3.2; ATPase assay, enzyme 5 nM, ATP 250 uM, chicken mononucleosome 10 nM, 30 min preincubation.
`CCn1cc(NC(=O)c2cc(Cl)c(C#N)s2)ccc1=O` [Compound 86] gave an IC50 of 0.669 µM.

`N#Cc1cc(NC(=O)c2cc(Cl)c(Cl)s2)cn(CCF)c1=O` [Compound 193] showed an IC50 of 8.93 µM.

As to `CCn1cc(NC(=O)c2cc(Cl)c(Cl)s2)cc(Cc2cnn(C)c2)c1=O` [Compound 186], the IC50 is over 50 µM.

As to `N#Cc1cc(C(=O)Nc2ccc(=O)n(CC(F)F)c2)sc1Cl` [Compound 320], the IC50 came to 0.562 µM.

As to `O=C(Nc1cc(F)c(=O)n(CCF)c1)c1cc(Cl)c(CO)s1` [Compound 284], the IC50 amounted to 30.6 µM.

Compound `CS(=O)(=O)c1cc(C(=O)Nc2cc(F)c(=O)n(CCF)c2)sc1Cl` [Compound 307] displayed an IC50 of 3.27 µM.

The compound `O=C(Nc1cc(F)c(=O)n(CCF)c1)c1cc(Cl)c(C(O)C(F)(F)F)s1` (stereo not shown) [Compound 289] showed an IC50 of 42.6 µM.

The compound `O=C(Nc1cc(F)c(=O)n(CC(F)(F)F)c1)c1cnc(Cl)o1` [Compound 273] had an IC50 of over 50 µM.

`CNc1c(C(=O)Nc2cc(F)c(=O)n(CC(F)F)c2)sc(Cl)c1Cl` [Compound 335] yielded an IC50 of 45.1 µM.

As for `CCn1cc(NC(=O)c2cc(Cl)n[nH]2)cc(F)c1=O` [Compound 165], the IC50 worked out at 1.07 µM.

In turn, `CCn1cc(NC(=O)c2cnc(NC(C)C)s2)ccc1=O` [Compound 217] showed an IC50 of over 50 µM.

Turning to `O=C(Nc1ccc(=O)n(CC(F)F)c1)c1cc(Cl)c(Cl)s1` [Compound 81], the IC50 worked out at 0.723 µM.

The compound `CCn1cc(NC(=O)c2cc(Cl)c(Cl)s2)cc(OC)c1=O` [Compound 110] displayed an IC50 of over 50 µM.

Compound `O=C(Nc1ccc(=O)n(Cc2ccccc2)c1)c1ccc(Br)s1` [Compound 54] returned an IC50 of over 50 µM.

Compound `Cc1nc(-c2cc(C(=O)Nc3ccc(=O)n(C)c3)n(C)c2)cs1` [Compound 7] registered an IC50 of over 50 µM.

In turn, `CCn1cc(NC(=O)c2ccc(I)n2C)ccc1=O` [Compound 48] showed an IC50 of over 50 µM.

Compound `N#Cc1cc(NC(=O)c2cc(Cl)c(Cl)[nH]2)cn(CC(F)(F)F)c1=O` [Compound 211] had an IC50 of 27.5 µM.

As to `CCn1cc(NC(=O)c2cnc(-c3ccc4c(c3)CCO4)s2)ccc1=O` [Compound 5], the IC50 was over 50 µM.

In turn, `CCn1cc(NC(=O)c2cccn2C)ccc1=O` [Compound 13] had an IC50 of over 50 µM.

`Cn1cc(NC(=O)c2cnc(-c3ccco3)s2)cc(Cl)c1=O` [Compound 12] had an IC50 of over 50 µM.

For the compound `Cn1nc(C(=O)Nc2cc(F)c(=O)n(CCF)c2)cc1Cl` [Compound 230], the IC50 was over 50 µM.

On to `CCn1cc(NC(=O)c2cc(C)sc2C)ccc1=O` [Compound 33], for which the IC50 is over 50 µM.

The compound `Cc1cc(C(=O)Nc2cc(F)c(=O)n(CCF)c2)on1` [Compound 250] yielded an IC50 of over 50 µM.
